Values of other authors, collected in patent US20230190793A1, “Pharmaceutical Preparation for Use in the Treatment of Systemic Inflammatory Response Syndrome (SIRS)” (priority 2020, published 2023).

Compound | Acid dissociation constant as pKa at 298 K
[O-][Cl+2]([O-])O [chloric acid] | 0
OCl [hypochlorous acid] | 7.25
peroxochloric acid | approx. 6.2
